Values belong to the compound of their own block, whether it stands above or below them.
Columns and labels:
[1] = tested on: Escherichia coli ATCC®8739; assay: MIC, microdilution method adapted from DIN EN ISO 20776-1:2006; type: cell-based; conditions: no growth after 24 h and 72 h
Protocol: (§1) The antimicrobial activity of sodium perillate was examined in vitro using the microdilution method adapted from DIN EN ISO 20776-1:2006. R-Perillic acid and S-perillic acid were used as reference compounds. All experiments were done in 96-well plates in a final volume of 200 μL. Stock solutions of the investigated compounds were prepared in 25 mM buffer. The procedure was conducted as following: 4 μL of the particular stock solution were mixed with 196 μL culture medium containing a defined inoculum of the respective target strain. Sterile controls (not inoculated) and growth controls (buffer in-stead of compound added) were performed. All compound concentrations were tested in triplicate. The following strains were examined: Escherichia coli ATCC®8739, Pseudomonas aeruginosa ATCC®9027, Stapyhlococcus aureus ATCC®6538, Candida albicans ATCC®10231 and Aspergillus brasiliensis ATCC®16404. The following culture media were used: Mueller-Hinton II Bouillon (Escherichia coli, Pseudomonas aeruginosa and Staphylococcus aureus), yeast peptone dextrose (Candida albicans) and potato dextrose (Aspergillus brasiliensis). All culture media were buffered with 25 mM MES-buffer. For compound testing the plates were incubated at 37° C. (Escherichia coli, Pseudomonas aeruginosa and Staphylococcus aureus), at 28° C. (Candida albicans) and at 25° C. (Aspergillus brasiliensis). Plates were evaluated after 24 h and 72 h, respectively. The minimal inhibitory concentration is defined as the concentration where no microbial growth was observed after 24 h and 72 h incubation at the specified temperature.
(§2) Table 1 Determination of the minimal inhibition concentration (MIC, % w/v) of sodium perillate against five classical spoiling organisms under acidic (pH<6.5) and alkaline (pH>7.5) conditions using the microdilution method adapted according to DIN EN ISO 20776-1:2006. The experiments were performed in micro-well plates in a final volume of 200 μL. MIC-values are given according to the following letter code. A>1% w/v, B=0.5-1% w/v, C=0.1-0.5% w/v. D<0.1% w/v.

[2] = tested on: Candida albicans ATCC®10231; assay: as above; type: cell-based; conditions: no growth after 24 h and 72 h
Protocol: as §1, §2

[3] = tested on: Pseudomonas aeruginosa ATCC®9027; assay: as above; type: cell-based; conditions: no growth after 24 h and 72 h
Protocol: as §1, §2

[4] = tested on: Staphylococcus aureus ATCC®6538; assay: as above; type: cell-based; conditions: no growth after 24 h and 72 h
Protocol: as §1, §2

[5] = tested on: Aspergillus brasiliensis ATCC®16404; assay: as above; type: cell-based; conditions: pH <6.5; no growth after 24 h and 72 h
Protocol: as §1, §2

[6] = Stability investigation of sodium perillate on storage (TLC, GC, HPLC recovery); type: physicochemical; conditions: stored 12 months at 4° C., 22-25° C. and 50° C., gas and liquid chromatography
Protocol: Sodium perillate was prepared by adding a defined volume of a 0.1 M sodium hydroxide (NaOH) solution to perillic acid to give an aqueous solution of pH 7.0. The water was removed by evaporation resulting in a colorless solid. In order to investigate the stability of sodium perillate, the compound was stored for 12 months at 4° C., 22-25° C. (resemble room temperature) and 50° C. At certain time intervals all samples were examined and evaluated qualitatively using thin layer chromatography and quantitatively using gas and liquid chromatography. The results were compared to the stability of R perillic acid. […] These experiments highlight the long-term stability of sodium perillate.
Table 5 Recovery of sodium perillate measured by liquid chromatography (HPLC). Column: Phenomenex Luna 018. Method: 70% acetonitrile and 30% water, isocratic. Recovery values were calculated according to a calibration curve performed with sodium perillate in the range of 0.05-2 mM in acetonitrile. Detection was carried out by UV-light (DAD-detector) at 217 and 240 nm.

[7] = tested on: Escherichia coli ATCC®8739; assay: Conservation efficacy testing in cosmetic oil-water-emulsion; type: cell-based; conditions: O/W emulsion pH 5-6, room temperature
Protocol: (§3) The conservation efficacy of sodium perillate in a final product was determined using two different formulations: • a) an oil-water-emulsion pH 5.5 (example for a cosmetic product), • b) a water-based glucose solution at pH 3.5 (example for a non-carbonated soft drink).
(§4) Hereby, a defined inoculum of the test strains was added directly to the formulations. In order to examine product preservation by sodium perillate or perillic acid, the formulations were incubated at room temperature for 4 to 16 weeks, respectively. Samples were taken every 7 days and […] (cfu) were counted on agar plates.
(§5) Among others the following strains were used to determine the efficacy of sodium peril-late in an oil-water emulsion: Escherichia coli ATCC®8739, Pseudomonas aeruginosa ATCC®9027, Stapyhlococcus aureus ATCC®6538, Candida albicans ATCC®10231, and Aspergillus brasiliensis ATCC®16404.
(§6) Table 2 Conservation efficacy testing of a typical cosmetic oil-water-emulsion at pH 5-6 supplemented with sodium perillate using five classical microbial test strains. All formulations were inoculated with a defined cell concentration and incubated over a time of 28 days at room temperature under standardized conditions. After 7, 14, 21 and 28 days samples were taken and the colony forming units (cfu) were calculated.

[8] = tested on: Candida albicans ATCC®10231; assay: as above; type: cell-based; conditions: O/W emulsion pH 5-6, room temperature
Protocol: as §3, §4, §5, §6

[9] = tested on: Pseudomonas aeruginosa ATCC®9027; assay: as above; type: cell-based; conditions: O/W emulsion pH 5-6, room temperature
Protocol: as §3, §4, §5, §6

[10] = tested on: Staphylococcus aureus ATCC®6538; assay: as above; type: cell-based; conditions: O/W emulsion pH 5-6, room temperature
Protocol: as §3, §4, §5, §6

[11] = tested on: Aspergillus brasiliensis ATCC®16404; assay: as above; type: cell-based; conditions: O/W emulsion pH 5-6, room temperature
Protocol: as §3, §4, §5, §6

Schizosaccharomyces sp. = assay: Conservation efficacy testing in aqueous formulation (juice matrix); type: cell-based; conditions: aqueous formulation (juice matrix) pH 2.5-4, room temperature
Protocol: as §3, §4
(§7) Among others the following species were used to determine the efficacy of sodium perillate in a water-based glucose formulation: Saccharomyces sp., Schizosaccharomyces sp., Asaia sp., Lactobacillus sp., and Aspergillus sp.
(§8) Table 3 Illustration of cell reduction using sodium perillate in a typical aqueous formulation (juice matrix) for beverages pH 2.5-4 supplemented with sodium perillate. Conservation efficacy testing was performed using five microbial test strains: Saccharomyces sp., Schizosaccharomyces sp., Asaia sp., Lactobacillus sp., and Aspergillus sp. All formulations were inoculated with a defined cell concentration and incubated at room temperature under standardized conditions. After 7, 14, 21 and 28 days samples were taken and the colony forming units (cfu) were calculated and shown here.

Saccharomyces sp. = assay: as above; type: cell-based; conditions: aqueous formulation (juice matrix) pH 2.5-4, room temperature
Protocol: as §3, §4, §7, §8

Aspergillus sp. = assay: as above; type: cell-based; conditions: aqueous formulation (juice matrix) pH 2.5-4, room temperature
Protocol: as §3, §4, §7, §8

Lactobacillus sp. = assay: as above; type: cell-based; conditions: aqueous formulation (juice matrix) pH 2.5-4, room temperature
Protocol: as §3, §4, §7, §8

Asaia sp. = assay: as above; type: cell-based; conditions: aqueous formulation (juice matrix) pH 2.5-4, room temperature
Protocol: as §3, §4, §7, §8

[12] = Solubility in water-based systems; type: physicochemical; conditions: neutral pH; compared to the free perillic acid
pKa = type: physicochemical; conditions: weak acid of which sodium perillate is the salt

MIC ([1]; pH <6.5): C (C=0.1-0.5% w/v)
MIC ([1]; pH >7.5): B (B=0.5-1% w/v)
MIC ([2]; pH <6.5): D (D<0.1% w/v)
MIC ([2]; pH >7.5): C (C=0.1-0.5% w/v)
MIC ([3]; pH <6.5): B (B=0.5-1% w/v)
MIC ([3]; pH >7.5): A (A>1% w/v)
MIC ([4]; pH <6.5): D (D<0.1% w/v)
MIC ([4]; pH >7.5): B (B=0.5-1% w/v)
MIC [5]: D (D<0.1% w/v)
SMILES: C=C(C)[C@H]1CC=C(C(=O)O)CC1 [R-Perillic Acid, R-Perillic acid]

MIC ([1]; pH <6.5): C (C=0.1-0.5% w/v)
MIC ([1]; pH >7.5): B (B=0.5-1% w/v)
MIC ([2]; pH <6.5): D (D<0.1% w/v)
MIC ([2]; pH >7.5): C (C=0.1-0.5% w/v)
MIC ([3]; pH <6.5): B (B=0.5-1% w/v)
MIC ([3]; pH >7.5): A (A>1% w/v)
MIC ([4]; pH <6.5): D (D<0.1% w/v)
MIC ([4]; pH >7.5): B (B=0.5-1% w/v)
MIC [5]: D (D<0.1% w/v)
SMILES: C=C(C)[C@@H]1CC=C(C(=O)O)CC1 [S-Perillic Acid, S-perillic acid]

Degradation products detected [6]: no degradation products
MIC ([1]; pH <6.5): C (C=0.1-0.5% w/v)
MIC ([1]; pH >7.5): B (B=0.5-1% w/v)
MIC ([2]; pH <6.5): D (D<0.1% w/v)
MIC ([2]; pH >7.5): C (C=0.1-0.5% w/v)
MIC ([3]; pH <6.5): B (B=0.5-1% w/v)
MIC ([3]; pH >7.5): A (A>1% w/v)
MIC ([4]; pH <6.5): D (D<0.1% w/v)
MIC ([4]; pH >7.5): B (B=0.5-1% w/v)
MIC [5]: D (D<0.1% w/v)
Solubility in water-based systems [12]: higher solubility
SMILES: C=C(C)C1CC=C(C(=O)[O-])CC1.[Na+] (stereo not drawn) [Sodium perillate, sodium perillate]
Reduced log-steps After T28 ([7]; after 28 days): 3 log-steps
CFU/mL at Sampling Timepoint T0 ([7]; day 0): 1,680,000 CFU/mL
CFU/mL at Sampling Timepoint T7 ([7]; day 7): 53,500 CFU/mL
CFU/mL at Sampling Timepoint T14 ([7]; day 14): 190 CFU/mL
CFU/mL at Sampling Timepoint T21 ([7]; day 21): 370 CFU/mL
CFU/mL at Sampling Timepoint T28 ([7]; day 28): 1,430 CFU/mL
Reduced log-steps After T28 ([8]; after 28 days): 2 log-steps
CFU/mL at Sampling Timepoint T0 ([8]; day 0): 68,000 CFU/mL
CFU/mL at Sampling Timepoint T7 ([8]; day 7): 8,260 CFU/mL
CFU/mL at Sampling Timepoint T14 ([8]; day 14): 1,925 CFU/mL
CFU/mL at Sampling Timepoint T21 ([8]; day 21): 4,100 CFU/mL
CFU/mL at Sampling Timepoint T28 ([8]; day 28): 630 CFU/mL
Reduced log-steps After T28 ([9]; after 28 days): 3 log-steps
CFU/mL at Sampling Timepoint T0 ([9]; day 0): 580,000 CFU/mL
CFU/mL at Sampling Timepoint T7 ([9]; day 7): 45,000 CFU/mL
CFU/mL at Sampling Timepoint T14 ([9]; day 14): 11,500 CFU/mL
CFU/mL at Sampling Timepoint T21 ([9]; day 21): 805 CFU/mL
CFU/mL at Sampling Timepoint T28 ([9]; day 28): 235 CFU/mL
Reduced log-steps After T28 ([10]; after 28 days): 6 log-steps
CFU/mL at Sampling Timepoint T0 ([10]; day 0): 130,000 CFU/mL
CFU/mL at Sampling Timepoint T7 ([10]; day 7): 0 CFU/mL
CFU/mL at Sampling Timepoint T14 ([10]; day 14): 0 CFU/mL
CFU/mL at Sampling Timepoint T21 ([10]; day 21): 0 CFU/mL
CFU/mL at Sampling Timepoint T28 ([10]; day 28): 0 CFU/mL
Reduced log-steps After T28 ([11]; after 28 days): 2 log-steps
CFU/mL at Sampling Timepoint T0 ([11]; day 0): 11,000 CFU/mL
CFU/mL at Sampling Timepoint T7 ([11]; day 7): 13,000 CFU/mL
CFU/mL at Sampling Timepoint T14 ([11]; day 14): 2,270 CFU/mL
CFU/mL at Sampling Timepoint T21 ([11]; day 21): 2,900 CFU/mL
CFU/mL at Sampling Timepoint T28 ([11]; day 28): 170 CFU/mL
CFU/mL at Sampling Timepoint T0 (Schizosaccharomyces sp.; day 0): 55 CFU/mL
CFU/mL at Sampling Timepoint T7 (Schizosaccharomyces sp.; day 7): 350 CFU/mL
CFU/mL at Sampling Timepoint T14 (Schizosaccharomyces sp.; day 14): 3,265 CFU/mL
CFU/mL at Sampling Timepoint T21 (Schizosaccharomyces sp.; day 21): 4,990 CFU/mL
CFU/mL at Sampling Timepoint T0 (Saccharomyces sp.; day 0): 10 CFU/mL
CFU/mL at Sampling Timepoint T7 (Saccharomyces sp.; day 7): 23,900 CFU/mL
CFU/mL at Sampling Timepoint T14 (Saccharomyces sp.; day 14): 52,900 CFU/mL
CFU/mL at Sampling Timepoint T21 (Saccharomyces sp.; day 21): 530,000 CFU/mL
CFU/mL at Sampling Timepoint T28 (Saccharomyces sp.; day 28): 470,000 CFU/mL
CFU/mL at Sampling Timepoint T0 (Aspergillus sp.; day 0): 10 CFU/mL
CFU/mL at Sampling Timepoint T7 (Aspergillus sp.; day 7): 0 CFU/mL
CFU/mL at Sampling Timepoint T14 (Aspergillus sp.; day 14): 0 CFU/mL
CFU/mL at Sampling Timepoint T21 (Aspergillus sp.; day 21): 0 CFU/mL
CFU/mL at Sampling Timepoint T28 (Aspergillus sp.; day 28): 0 CFU/mL
CFU/mL at Sampling Timepoint T0 (Lactobacillus sp.; day 0): 10 CFU/mL
CFU/mL at Sampling Timepoint T7 (Lactobacillus sp.; day 7): 10 CFU/mL
CFU/mL at Sampling Timepoint T14 (Lactobacillus sp.; day 14): 56 CFU/mL
CFU/mL at Sampling Timepoint T21 (Lactobacillus sp.; day 21): 340 CFU/mL
CFU/mL at Sampling Timepoint T28 (Lactobacillus sp.; day 28): 910 CFU/mL
CFU/mL at Sampling Timepoint T0 (Asaia sp.; day 0): 45 CFU/mL
CFU/mL at Sampling Timepoint T7 (Asaia sp.; day 7): 17,250 CFU/mL
CFU/mL at Sampling Timepoint T14 (Asaia sp.; day 14): 8,940 CFU/mL
CFU/mL at Sampling Timepoint T21 (Asaia sp.; day 21): 725 CFU/mL
CFU/mL at Sampling Timepoint T28 (Asaia sp.; day 28): 685 CFU/mL

pKa (pKa): 4.96
SMILES: C=C(C)[C@@H]1CC=C(C(=O)O)CC1 [perillic acid]

— US11297835B2, “Aqueous compositions of perillic acid compounds” (B.R.A.I.N. BIOTECHNOLOGY RESEARCH AND INFORMATION NETWORK AG, priority 2016, dated 2022)
